The nature of this data set: Thermogravimetric analysis of a 1α-hydroxy-vitamin D3 sample. It is filed as physicochemical. The conditions noted are these: heated under nitrogen at 10 °C/min. As to the method: Thermogravimetric analysis of a 1α-hydroxy-vitamin D3 sample was performed using a TA Instruments 2950 thermogravimetric analyzer (available from TA Instruments of New Castle, Del.). The sample was placed in an aluminum sample pan and inserted into the thermogravimetric furnace. The furnace was heated under nitrogen at a rate of 10 ° C./min, from room temperature to a final temperature of 350° C. Nickel and Alumel™ (available from Hoskins Manufacturing Company, Novi, Mich.) were used as calibration standards. […] (See FIG. 6).

`C=C1/C(=C\C=C2/CCC[C@]3(C)[C@@H]([C@H](C)CCCC(C)C)CC[C@@H]23)C[C@@H](O)C[C@@H]1O` [1α-hydroxy-vitamin D3, 1α, 3β,5Z,7E-9,10-secocholesta-5,7,10(19)-triene-1,3-diol]: the “weight loss (thermogravimetric thermogram)” value (from 25° C. to 150° C.) came to 0.09%. For the setting “room temperature to 350° C.”, the “decomposition temperature (thermogravimetric thermogram)” value was above 200 °C.
